Assays:
neutrophils in LBA = assay: LPS inhalation in mice, neutrophils in bronchoalveolar lavage; details: in vivo, FIG. 4, p<0.05 compared to vehicle group
Method: For inhalation of LPS, we used a glass inhalation chamber with a volume of 1 liter, with a capacity of 8 mice. The mice were placed in this chamber for five minutes and inhaled aerosols produced by positive pressure of 2 mL of a suspension of LPS containing 0.5 mg/mL, prepared in physiological saline (NaCl 0.9%). The control group inhaled saline only. Groups of animals were treated with LQB dissolved in physiological saline with 10% ethanol (vehicle) at doses of 1, 10 and 100 mg/kg. The substances were administered in a volume of 200 μL intraperitoneal (ip) 1 hour before LPS inhalation. In parallel, groups of animals were treated with 200 μL of the vehicle. Three hours after inhalation of LPS, animals were sacrificed by cervical dislocation, their tracheas were exposed, cannulated and lungs were washed with saline to a final volume of 1.5 mL in tubes kept at 4° C. […] An aliquot of 300 μL of lavage was used to count and identify the cells and the remainder was centrifuged at 1,500×g for 10 minutes (Sorvall, USA). […] The total number of cells was determined in a cell counter type Coulter Counter (Coulter Electronics Inc.—USA). The identification of different cell types present in BAL cytospin was made after 200 μl of LBA at 80×g for 1 minute (Shandon—USA). The slides prepared from cytospin stained with Diff-Quick kit (Shandon, USA). We counted approximately 200 cells on each slide. […]

TNF-α release by PBMC = assay: LPS-stimulated release of TNF-α by PBMC in vitro; type: cell-based, human; details: FIG. 3, p<0.05
Method: Mononuclear cells were obtained from peripheral blood of healthy donors by gradient centrifugation in Ficoll. 20 ml peripheral blood were carefully added to 16 mL of Ficoll followed by centrifugation at 1500×g for 30 minutes. Once collected, the PBMC were washed twice with saline and resuspended in culture field RPMI 1640 containing 0.1 mg streptomycin/mL, penicillin 100 U/mL and supplemented with 10% of FCS. The PBMC resuspended in RPMI were seeded in 24-well plate (8×10^5 cells/well). The cells were incubated with LPS at a concentration of 2 μg/mL at 37° C. in 4% CO2 for 2 hours. After incubation with LPS, the supernatant was collected and centrifuged at 14,000×g for 1 minute to rule out any possible cell. The supernatant was stored at −20° C. for subsequent cytokine. […] A group of cells received only the vehicle.

SMILES: O=C1C2=C(C(=O)c3ccccc31)[C@H]1Oc3ccccc3[C@H]1CO2 [LQB1]
- release of neutrophils in LBA (neutrophils in LBA): inhibiting the release of neutrophils
- release of TNF-α by PBMC (TNF-α release by PBMC): inhibiting release of TNF-α
